Test results as given in patent US5869494A, “Uses for barbituric acid analogs” (priority 1997, dated 1999).

Columns and labels:
MT-4 cells = experiment: Toxicity to MT-4 cells; format: cell-based, human; details: drug doses of the HIV-1 test (75-125 μg/ml)
Experimental: (§1) After 2 h at 37° C., treated and control HIV-1 samples were added to the indicator MT-4 cells (cultured human T cells) in the presence of 2 μg/ml POLYBRENE™ for 2 h. After washing, MT-4 cells were cultured in the presence of drug-treated or control (untreated) HIV-1. Cell viability of MT-4 cells was determined by the trypan blue dye exclusion method.

NCI-H23 = experiment: NCI tumor cell line screen (SRB assay); format: cell-based; parameters: activity: dose or concentration left out as unconfirmed; details: Homo sapiens, read-out: PERCENT GROWTH
Summary of the method: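 Optical density of solubilized sulforhodamine B gives the cell mass readout, taken at 564 nm or at suboptimal wavelengths near 490-530 nm so readings stay under 1.8 OD units. Cells are TCA-fixed, stained 30 min with 0.4% SRB and washed with 1% acetic acid.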

[1] = system: human immunodeficiency virus (HIV-1); experiment: Inactivation of cell free HIV-1 (MT-4 indicator cells); format: cell-based; details: 2 h treatment, MT-4 + HIV-1, day 7
Experimental: as §1

breast tumor = experiment: Human tumor cloning system, breast tumors; format: cell-based; details: responsive = at least 50% inhibition of tumor colony formation
Experimental: Through the initial work of Hamburger and Salmon (1977 a,b), it is possible to culture human tumors using a two-layer soft agar system. This culture system, called the human tumor cloning system, was initially utilized to select the most appropriate anticancer agent for an individual patient's tumor. […] In an in vitro-in vivo correlation study involving 800 patients retrospectively, it was determined that the true positive rate for this assay was 70%, while the true negative rate for the assay was 98% (Von Hoff et al., 1981). In a more recent prospective clinical trial of the cloning system involving 604 patients, the percent true positive for the assay was 64%, while the percent true negative for the assay was 86% (Von Hoff et al., 1983). […] This system was used to study the response of compound C1 for breast cancer and non-small cell lung carcinoma.
Collection and preparation of tumor cells: After obtaining informed consent in accordance with federal and institutional guidelines, malignant effusions, ascites and bone marrow aspirates containing tumor cells as well as solid tumor specimens were collected from patients undergoing procedure carried out as a part of their diagnostic workup or as part of treatment for their disease. […] The viability of cell suspensions thus obtained was determined with trypan blue.
Tumor cells to be cloned were suspended in 0.3% agar in enriched CMRL 1066 medium (Gibco, Grand Island, N.Y.) supplemented with 15% heat-inactivated horse serum, penicillin (100 units/ml), streptomycin (2 mg/ml) glutamine (2 mM), insulin (3 units/ml), asparagine (0.6 mg/ml), and HEPES buffer (2 mM). […] After an incubation period of 14 days, plates were removed and the number of colonies were counted in each plate. The number of colonies (defined as >50 cells) formed were compared in drug treated and untreated (control) plates and the percent colonies surviving at each drug dose tested was then calculated as a percentage of control. […]

CCCCN1C(=O)CC(=O)N(CCCC)C1=S [Compound C1, 4,6(1H, 5H)-pyrimidinedione, 1,3-dibutyldihydro-2-thioxo]
toxicity to the MT-4 cells (MT-4 cells): not toxic to the MT-4 cells | activity (NCI-H23; 10^-3.0 Molar): -62% | activity at 100 µM (NCI-H23; 10^-4.0 Molar): 63% | activity at 10 µM (NCI-H23; 10^-5.0 Molar): 98% | activity at 1 µM (NCI-H23; 10^-6.0 Molar): 103% | activity at 0.1 µM (NCI-H23; 10^-7.0 Molar): 97% | % Inactivation Day 7 ([1]; 125 μg/ml): 62% | killing at 75 µg/mL ([1]; Human immunodeficiency virus 1, 168 h, 75 μg/ml): 7.7% | killing at 100 µg/mL ([1]; Human immunodeficiency virus 1, 168 h, 100 μg/ml): 34.1% | killing at 125 µg/mL ([1]; Human immunodeficiency virus 1, 168 h, 125 μg/ml): 62.6% | # responsive tumors/total # evaluated (breast tumor; 75 μg/ml): 3/8 | # responsive tumors/total # evaluated (breast tumor; 100 μg/ml): 4/8 | # responsive tumors/total # evaluated (breast tumor; 125 μg/ml): 6/8
